Data reported in patent publication US12180193B2, “Accelerating fibrosarcoma protein degrading compounds and associated methods of use” (Arvinas Operations, Inc., priority 2020, dated 2024).
Where two headings read alike, the source gives them in different places.

Columns and labels:
BRAF V600E = molecular target: T1, BRAF V600E (Homo sapiens, UniProt P15056, V600E); test: Cellular assay of target protein degradation, T-Rex 293 cells stably transfected with HA-BRAF_V600E (HA immunofluorescence, high content imaging); format: cell-based
T1 construct: expressed in transfected cells
T1 sequence (P15056 whole entry V600E): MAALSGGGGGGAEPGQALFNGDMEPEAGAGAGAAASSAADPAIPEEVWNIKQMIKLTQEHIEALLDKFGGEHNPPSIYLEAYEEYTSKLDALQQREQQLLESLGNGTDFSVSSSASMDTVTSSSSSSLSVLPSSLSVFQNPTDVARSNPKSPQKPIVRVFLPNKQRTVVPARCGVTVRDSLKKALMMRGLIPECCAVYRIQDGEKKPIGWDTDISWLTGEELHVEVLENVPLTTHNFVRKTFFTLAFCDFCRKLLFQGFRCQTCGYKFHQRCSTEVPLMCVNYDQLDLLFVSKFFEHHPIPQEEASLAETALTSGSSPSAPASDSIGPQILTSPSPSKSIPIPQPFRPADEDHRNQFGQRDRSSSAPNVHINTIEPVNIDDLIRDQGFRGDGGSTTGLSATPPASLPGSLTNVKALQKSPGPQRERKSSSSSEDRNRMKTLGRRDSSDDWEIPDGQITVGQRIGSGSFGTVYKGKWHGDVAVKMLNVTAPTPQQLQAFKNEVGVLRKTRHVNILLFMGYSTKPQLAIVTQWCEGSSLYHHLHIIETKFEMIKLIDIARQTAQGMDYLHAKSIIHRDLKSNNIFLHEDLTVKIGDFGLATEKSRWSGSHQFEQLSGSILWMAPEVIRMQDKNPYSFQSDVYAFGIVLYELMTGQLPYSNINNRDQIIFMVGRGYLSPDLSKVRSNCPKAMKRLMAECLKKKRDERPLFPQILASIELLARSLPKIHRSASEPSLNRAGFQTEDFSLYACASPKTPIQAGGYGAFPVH
How it was run: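 HA immunofluorescence on fixed cells, imaged by high-content reader, measured loss of HA-BRAF V600E in stably transfected T-Rex 293 cells induced with 1 ng/mL doxycycline. Compounds were applied for 24 h at 37 °C (final 0.1 nM–1 μM, 0.1% DMSO); DC50 and Dmax (% of control) were reported.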

BRAF G466V = molecular target: T2, BRAF G466V (Homo sapiens, UniProt P15056, G466V); test: Cellular assay of target protein degradation, T-Rex 293 cells stably transfected with HA-BRAF G466V (HA immunofluorescence, high content imaging); format: cell-based
T2 construct: expressed in transfected cells
T2 sequence (P15056 whole entry G466V): as the sequence (P15056 whole entry V600E) above, with G466V, E600V counted along it
How it was run: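 HA-BRAF G466V levels were read by HA immunofluorescence and high-content imaging after 24 h compound exposure (final 30 nM–3 pM, 0.1% DMSO, 37 °C). Expression was induced with 0.75 ng/mL doxycycline. Outputs: half-maximal degradation concentration (DC50) and maximal degradation (Dmax) relative to control.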

[1] = half maximal degradation, T-Rex 293 HA-BRAF V600E; read-out: BRaf V600E DC50
[2] = maximum degradation observed, T-Rex 293 HA-BRAF V600E
[3] = half maximal degradation, T-Rex 293 HA-BRAF G466V; read-out: BRaf G466V DC50
[4] = maximum degradation observed, T-Rex 293 HA-BRAF G466V

| SMILES | DC50 (BRAF V600E; [1]) [nM] | Dmax (BRAF V600E; [2]) [%] | DC50 (BRAF G466V; [3]) [nM] | Dmax (BRAF G466V; [4]) [%] | DC50 (BRAF V600E; read-out: BRaf V600E DC50; half maximal degradation, T-Rex 293 HA-BRAF V600E) [nM] | DC50 (BRAF G466V; read-out: BRaf G466V DC50; half maximal degradation, T-Rex 293 HA-BRAF G466V) [nM] |
| --- | --- | --- | --- | --- | --- | --- |
| O=C1CC[C@@H](N2Cc3cc(C4CCN(CC5CCN(c6ccc(-c7cnc8[nH]cc(C(=O)c9c(F)ccc(NS(=O)(=O)N%10CC[C@@H](F)C%10)c9F)c8c7)cc6)CC5)CC4)ccc3C2=O)C(=O)N1 [Compound 161, (3R)-N-{3-[5-(4-{4-[(4-{2-[(3R)-2,6-dioxopiperidin-3-yl]-1-oxo-2,3-dihydro-1H-isoindol-5-yl}lpiperidin-1-yl)methyl]piperidin-1-yl}phenyl)-1H-pyrrolo[2,3-b]pyridine-3-carbonyl]-2,4-difluorophenyl}-3-fluoropyrrolidine-1-sulfonamide] | 5 to 50 | 35 to 70 | < 1 | > 70 | – | – |
| O=C1CCC(NC(=O)N2CCCc3c(C4CCN(CC5CCN(c6ccc(-c7cnc8[nH]cc(C(=O)c9c(F)ccc(NS(=O)(=O)N%10CC[C@@H](F)C%10)c9F)c8c7)cc6)CC5)CC4)ccnc32)C(=O)N1 (stereo partly drawn) [Compound 364, 5-(1-{[1-(4-{3-[2,6-difluoro-3-({[(3R)-3-fluoropyrrolidin-1-yl]sulfonyl}amino)benzoyl]-1H-pyrrolo[2,3-b]pyridin-5-yl}phenyl)piperidin-4-yl]methyl}piperidin-4-yl)-N-(2,6-dioxopiperidin-3-yl)-1,2,3,4-tetrahydro-1,8-naphthyridine-1-carboxamide] | – | 35 to 70 | – | > 70 | 5 to 50 | 1 to 10 |
| O=C1CC[C@H](N2Cc3cc(N4CCC(CN5CC6(C5)CN(c5ccc(-c7cnc8[nH]cc(C(=O)c9c(F)ccc(NS(=O)(=O)N%10CC[C@@H](F)C%10)c9F)c8c7)cc5)C6)CC4)c(F)cc3C2=O)C(=O)N1 [Compound 55, (3R)-N-{3-[5-(4-{6-[(1-{2-[(3S)-2,6-dioxopiperidin-3-yl]-6-fluoro-1-oxo-2,3-dihydro-1H-isoindol-5-yl}piperidin-4-yl)methyl]-2,6-diazaspiro[3.3]heptan-2-yl}phenyl)-1H-pyrrolo[2,3-b]pyridine-3-carbonyl]-2,4-difluorophenyl}-3-fluoropyrrolidine-1-sulfonamide] | 5 to 50 | 35 to 70 | < 1 | > 70 | – | – |
| O=C1CCC(N2Cc3cc(O[C@H]4C[C@]5(COCCN5CC5CCN(c6ccc(-c7cnc8[nH]cc(C(=O)c9c(F)ccc(NS(=O)(=O)N%10CC[C@@H](F)C%10)c9F)c8c7)cc6)CC5)C4)ccc3C2=O)C(=O)N1 (stereo partly drawn) [Compound 14, (3R)-N-(2,4-difluoro-3-{5-[4-(4-{[(2s,4s)-2-{[2-(2,6-dioxopiperidin-3-yl)-1-oxo-2,3-dihydro-1H-isoindol-5-yl]oxy}-8-oxa-5-azaspiro[3.5]nonan-5-yl]methyl}piperidin-1-yl)phenyl]-1H-pyrrolo[2,3-b]pyridine-3-carbonyl}phenyl)-3-fluoropyrrolidine-1-sulfonamide] | > 500 | 35 to 70 | – | < 35 | – | – |
| O=C1CCC(N2Cc3cc(N4CCC(F)(CN5CC6(C5)CN(c5ccc(-c7cnc8[nH]cc(C(=O)c9c(F)ccc(NS(=O)(=O)N%10CC[C@@H](F)C%10)c9F)c8c7)cc5)C6)CC4)ccc3C2=O)C(=O)N1 (stereo partly drawn) [Compound 19, (3R)-N-[3-(5-{4-[6-({1-[2-(2,6-dioxopiperidin-3-yl)-1-oxo-2,3-dihydro-1H-isoindol-5-yl]-4-fluoropiperidin-4-yl}methyl)-2,6-diazaspiro[3.3]heptan-2-yl]phenyl}-1H-pyrrolo[2,3-b]pyridine-3-carbonyl)-2,4-difluorophenyl]-3-fluoropyrrolidine-1-sulfonamide] | 5 to 50 | 35 to 70 | 1 to 10 | 35 to 70 | – | – |
| O=C1CCC(N2Cc3cc(N4CCC(N5C[C@@H]6C[C@H]5CN(c5ccc(-c7cnc8[nH]cc(C(=O)c9c(F)ccc(NS(=O)(=O)N%10CC[C@@H](F)C%10)c9F)c8c7)cc5)C6)CC4)ccc3C2=O)C(=O)N1 (stereo partly drawn) [Compound 16, (3R)-N-[3-(5-{4-[(1S,5S)-6-{1-[2-(2,6-dioxopiperidin-3-yl)-1-oxo-2,3-dihydro-1H-isoindol-5-yl]piperidin-4-yl}-3,6-diazabicyclo[3.2.1]octan-3-yl]phenyl}-1H-pyrrolo[2,3-b]pyridine-3-carbonyl)-2,4-difluorophenyl]-3-fluoropyrrolidine-1-sulfonamide] | 50 to 500 | 35 to 70 | 1 to 10 | 35 to 70 | – | – |
| O=C1CC[C@H](N2Cc3cc(OCCCN4CC5(C4)CN(c4ccc(-c6cnc7[nH]cc(C(=O)c8c(F)ccc(NS(=O)(=O)N9CC[C@@H](F)C9)c8F)c7c6)cc4)C5)ccc3C2=O)C(=O)N1 [Compound 80, (3R)-N-{3-[5-(4-{6-[3-({2-[(3S)-2,6-dioxopiperidin-3-yl]-1-oxo-2,3-dihydro-1H-isoindol-5-yl}oxy)propyl]-2,6-diazaspiro[3.3]heptan-2-yl}phenyl)-1H-pyrrolo[2,3-b]pyridine-3-carbonyl]-2,4-difluorophenyl}-3-fluoropyrrolidine-1-sulfonamide] | < 5 | 35 to 70 | 1 to 10 | > 70 | – | – |
| O=C1CC[C@@H](N2Cc3cc(CC[C@H](O)CN4CC5(C4)CN(c4ccc(-c6cnc7[nH]cc(C(=O)c8c(F)ccc(NS(=O)(=O)N9CC[C@@H](F)C9)c8F)c7c6)cc4)C5)ccc3C2=O)C(=O)N1 [Compound 173, (3R)-N-{3-[5-(4-{6-[(2S)-4-{2-[(3R)-2,6-dioxopiperidin-3-yl]-1-oxo-2,3-dihydro-1H-isoindol-5-yl}-2-hydroxybutyl]-2,6-diazaspiro[3.3]heptan-2-yl}phenyl)-1H-pyrrolo[2,3-b]pyridine-3-carbonyl]-2,4-difluorophenyl}-3-fluoropyrrolidine-1-sulfonamide] | 5 to 50 | 35 to 70 | 1 to 10 | > 70 | – | – |

The next lines start with results.

| DC50 (BRAF V600E; [1]) [nM] | Dmax (BRAF V600E; [2]) [%] | DC50 (BRAF G466V; [3]) [nM] | Dmax (BRAF G466V; [4]) [%] | SMILES | DC50 (BRAF V600E; read-out: BRaf V600E DC50; half maximal degradation, T-Rex 293 HA-BRAF V600E) [nM] | DC50 (BRAF G466V; read-out: BRaf G466V DC50; half maximal degradation, T-Rex 293 HA-BRAF G466V) [nM] |
| --- | --- | --- | --- | --- | --- | --- |
| < 5 | < 35 | 1 to 10 | > 70 | COc1cc(N2CCN(CC3CCN(c4ccc(-c5cnc6[nH]cc(C(=O)c7c(F)ccc(NS(=O)(=O)N8CC[C@@H](F)C8)c7F)c6c5)cc4)CC3)CC2)ccc1C(=O)NC1CCC(=O)NC1=O (stereo partly drawn) [Compound 360, 4-(4-{[1-(4-{3-[2,6-difluoro-3-({[(3R)-3-fluoropyrrolidin-1-yl]sulfonyl}amino)benzoyl]-1H-pyrrolo[2,3-b]pyridin-5-yl}phenyl)piperidin-4-yl]methyl}piperazin-1-yl)-N-(2,6-dioxopiperidin-3-yl)-2-methoxybenzamide] | – | – |
| 5 to 50 | 35 to 70 | 1 to 10 | > 70 | COc1cc(N2CC3(CN(CC4CCN(c5ccc(-c6cnc7[nH]cc(C(=O)c8c(F)ccc(NS(=O)(=O)N9CC[C@@H](F)C9)c8F)c7c6)cc5)CC4)C3)C2)ccc1C(=O)N[C@H]1CCC(=O)NC1=O [Compound 343, 4-(6-{[1-(4-{3-[2,6-difluoro-3-({[(3R)-3-fluoropyrrolidin-1-yl]sulfonyl}amino)benzoyl]-1H-pyrrolo[2,3-b]pyridin-5-yl}phenyl)piperidin-4-yl]methyl}-2,6-diazaspiro[3.3]heptan-2-yl)-N-[(3S)-2,6-dioxopiperidin-3-yl]-2-methoxybenzamide] | – | – |
| 50 to 500 | 35 to 70 | 10 to 30 | 35 to 70 | C[C@@H](c1ncc(-c2cnc3[nH]cc(C(=O)c4c(F)ccc(NS(=O)(=O)N5CC[C@@H](F)C5)c4F)c3c2)cn1)N1CCN(CC2CCN(c3ccc4c(c3)CN([C@H]3CCC(=O)NC3=O)C4=O)CC2)CC1 [Compound 289, (3R)-N-[3-(5-{2-[(1S)-1-{4-[(1-{2-[(3S)-2,6-dioxopiperidin-3-yl]-1-oxo-2,3-dihydro-1H-isoindol-5-yl}piperidin-4-yl)methyl]piperazin-1-yl}ethyl]pyrimidin-5-yl}-1H-pyrrolo[2,3-b]pyridine-3-carbonyl)-2,4-difluorophenyl]-3-fluoropyrrolidine-1-sulfonamide] | – | – |
| 50 to 500 | 35 to 70 | 1 to 10 | 35 to 70 | COc1cc([C@@H](O)CCN2CCN(c3ccc(-c4cnc5[nH]cc(C(=O)c6c(F)ccc(NS(=O)(=O)N7CC[C@@H](F)C7)c6F)c5c4)cc3)CC2)cc2c1C(=O)N([C@@H]1CCC(=O)NC1=O)C2 [Compound 296, (3R)-N-{3-[5-(4-{4-[(3S)-3-{2-[(3R)-2,6-dioxopiperidin-3-yl]-7-methoxy-1-oxo-2,3-dihydro-1H-isoindol-5-yl}-3-hydroxypropyl]piperazin-1-yl}phenyl)-1H-pyrrolo[2,3-b]pyridine-3-carbonyl]-2,4-difluorophenyl}-3-fluoropyrrolidine-1-sulfonamide] | – | – |
| 5 to 50 | 35 to 70 | 1 to 10 | > 70 | O=C1CCC(N2Cc3cc(N4CCC(CN5CC[C@H]6[C@@H](C5)CN6c5ccc(-c6cnc7[nH]cc(C(=O)c8c(F)ccc(NS(=O)(=O)N9CC[C@@H](F)C9)c8F)c7c6)cc5)CC4)ccc3C2=O)C(=O)N1 (stereo partly drawn) [Compound 329, (3R)-N-[3-(5-{4-[(1S,6S)-3-({1-[2-(2,6-dioxopiperidin-3-yl)-1-oxo-2,3-dihydro-1H-isoindol-5-yl]piperidin-4-yl}methyl)-3,7-diazabicyclo[4.2.0]octan-7-yl]phenyl}-1H-pyrrolo[2,3-b]pyridine-3-carbonyl)-2,4-difluorophenyl]-3-fluoropyrrolidine-1-sulfonamide] | – | – |
